# Data as given in patent US20240294551A1 (AMGEN INC., priority 2022, published 2024).
# Where a name gives a salt, the structure may show the parent alone.
# Key:
# [1] = system: Phosphorylation of ERK1/2 in AsPC-1 cells; assay: Phospho-ERK1/2 MSD Assay; assay type: cell-based, human; settings: Homo sapiens, ASPC1, 2 h, read-out: 2 h p-ERK (AsPC-1 cells), IC50
# Procedure, shortened: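 Read-out: MSD electrochemiluminescent detection of phosphorylated ERK1/2 in whole-cell lysates, fitted to a 4-parameter logistic curve for IC50. Prior to lysis, AsPC-1 cells (25,000 per well) received a 2 h compound dose-response at 37 °C.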
# [2] = molecular target: His-tagged KRAS G12D protein (Homo sapiens (Human), UniProt P01116, G12D); assay: KRAS G12D TR-FRET Assay; assay type: binding; settings: read-out: KRAS G12D Binding IC50
# His-tagged KRAS G12D protein, sequence (P01116 other isoform, or with tags, fused parts or gaps G12D): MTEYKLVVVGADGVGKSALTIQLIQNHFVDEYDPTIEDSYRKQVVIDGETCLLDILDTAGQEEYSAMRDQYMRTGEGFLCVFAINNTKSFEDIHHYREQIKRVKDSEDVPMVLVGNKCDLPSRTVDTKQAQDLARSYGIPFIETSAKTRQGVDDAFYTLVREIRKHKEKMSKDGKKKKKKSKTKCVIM
# Procedure, shortened: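 His-tagged KRAS G12D (diluted to 20 nM in pH 7.4 HEPES buffer with 10 mM MgCl2 and 10 μM GDP) was preincubated with titrated compound for 30 min at room temperature. Biotinylated KRPep-2d peptide (diluted to 20 nM) was then added for 1 h, and displacement was monitored by TR-FRET.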
# SW620 cells = assay: SW620 CTG Assay (CellTiter-Glo cell viability); assay type: cell-based, human; settings: Homo sapiens, SW-620; SW620, 72 h; third value of the cell; read-out: G12D/C/V Cell Proliferation CTG (72 h) SW620
# Experimental: AsPC-1 and SW620 CTG Assay Protocols
# AsPC-1 (human pancreatic adenocarcinoma; ATCC CRL-1682) or SW620 (human colon adenocarcinoma; ATCC CCL-227) cells were cultured in RPMI 1640 medium containing 10% fetal bovine serum and 1× penicillin/streptomycin/L-glutamine. Cells were seeded in 384-well plates at a density of 3.33E+04 cells/mL and incubated at 37° C., 5% CO2, overnight. Serially-diluted compound or DMSO was added to the cells, and plates were incubated at 37° C., 5% CO2 for 72 h. Cell viability was measured using a CellTiter-Glo® Luminescent Cell Viability Assay kit (Promega) according to the manufacturer's protocol. The luminescence signal of treated samples was normalized to DMSO control, and data were analyzed using a 4-parameter logistic model to calculate IC50 values.
# AsPC-1 cells = assay: AsPC-1 CTG Assay (CellTiter-Glo cell viability); assay type: cell-based, human; settings: Homo sapiens, ASPC1, 72 h, AsPC-1, 72 h; first value of the cell; read-out: G12D/C/V Cell Proliferation CTG (72 h) AsPC-1
# Procedure, shortened: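 Human pancreatic AsPC-1 or colon SW620 cells in RPMI 1640 with 10% FBS, seeded overnight, then exposed to serially diluted compound for 72 h at 37 °C. CellTiter-Glo luminescence normalized to DMSO control; IC50 from a 4-parameter logistic model.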
# [3] = molecular target: GDP-bound KRAS protein (aa 1-169), containing both G12D and C118A amino acid substitutions (Homo sapiens (Human), UniProt P01116, C118A/G12D); assay: KRAS G12D Coupled Nucleotide Exchange Assay; assay type: biochemical; settings: read-out: KRAS G12D Coupled Exchange IC50
# GDP-bound KRAS protein (aa 1-169), containing both G12D and C118A amino acid substitutions, sequence (P01116 other isoform, or with tags, fused parts or gaps G12D/C118A): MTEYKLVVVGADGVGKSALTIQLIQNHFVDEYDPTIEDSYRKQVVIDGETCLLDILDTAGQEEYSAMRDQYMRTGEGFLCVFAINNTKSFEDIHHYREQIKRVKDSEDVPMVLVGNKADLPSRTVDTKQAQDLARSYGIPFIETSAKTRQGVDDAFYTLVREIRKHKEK
# MIA PaCa-2 cells = assay: MIA PaCa-2 CTG Assay (CellTiter-Glo cell viability); assay type: cell-based, human; settings: Homo sapiens; Mia PaCa-2, 72 h; second value of the cell; read-out: G12D/C/V Cell Proliferation CTG (72 h) Mia PaCa-2
# Procedure, shortened: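 Human pancreatic carcinoma cells in RPMI 1640 with 10% FBS, seeded at 1.67E+04 cells/mL and left overnight, were treated with serially diluted compound for 72 h at 37° C, 5% CO2. Viability was read by CellTiter-Glo luminescence normalized to DMSO; IC50 came from a 4-parameter logistic fit.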
IC50 [1] [nM],IC50 [2] [nM],IC50 (SW620 cells) [nM],IC50 (AsPC-1 cells) [nM],IC50 [3] [nM],IC50 (MIA PaCa-2 cells) [nM],Compound
52,6,427,490,3,,"C[C@@]12CCCN(C1)c1nc(OC[C@@]34CCCN3C[C@H](F)C4)nc3c(F)c(ncc13)-c1cccc3ccc(F)c(c13)CC[C@H](F)C(=O)N2 [Example 12, (15R,18S)-18,22,31-trifluoro-8-(((2R,7aS)-2-fluorotetrahydro-1H-pyrrolo[1,2-a]pyrrol-7a(5H)-yl)methoxy)-15-methyl-3,7,9,11,16-pentaazahexacyclo[19.7.1.1˜2,6˜.1˜11,15˜.0˜5,10˜.0˜25,29˜]hentriaconta-1(28),2(31),3,5,7,9,21,23,25(29),26-decaen-17-one]"
74,8,150,480,4,,"CN1C(=O)CCCCc2c(Cl)cc3[nH]ncc3c2-c2ncc3c(nc(OC[C@@]45CCCN4C[C@H](F)C5)nc3c2F)N2CCC[C@@H]1C2 [Example 53, (17R)-9-chloro-30-fluoro-24-(((2R,7aS)-2-fluorotetrahydro-1H-pyrrolo[1,2-a]pyrrol-7a(5H)-yl)methoxy)-16-methyl-5,6,16,21,23,25,29-heptaazahexacyclo[24.3.1.1~17,21~.0~2,10~.0~3,7~.0~22,27~]hentriaconta-1(30),2,4,7,9,22,24,26,28-nonaen-15-one]"
42,7,165,460,5,,Fc1c2ncc3c(nc(OC[C@@]45CCCN4C[C@H](F)C5)nc13)N1CCCC(C1)c1cnn(n1)CCCc1c(Cl)cc3[nH]ncc3c1-2 (stereo partly drawn) [Example 148]
52,6,302,720,5,,"Fc1c2ncc3c(nc(OC[C@@]45CCCN4C[C@H](F)C5)nc13)N1CCC[C@H](C1)Cn1ncc(n1)/C=C\c1c(Cl)cc3[nH]ncc3c1-2 [Example 155, (11Z,18R)-9-chloro-31-fluoro-25-(((2R,7aS)-2-fluorotetrahydro-1H-pyrrolo[1,2-a]pyrrol-7a(5H)-yl)methoxy)-5,6,15,16,22,24,26,30,33-nonaazaheptacyclo[25.3.1.1~13,16~.1~18,22~.0~2,10~.0~3,7~.0~23,28~]tritriaconta-1(31),2,4,7,9,11,13(33),14,23,25,27,29-dodecaen]"
48,5,137,360,3,,O=C1OCCCc2c(F)cc3[nH]ncc3c2-c2ncc3c(nc(OC[C@@]45CCCN4C[C@H](F)C5)nc3c2F)N2CCC[C@H](C2)O1 [Example 112]
8,,31,117,1,,"CN(C)CC1(COc2nc3c4cnc(c(F)c4n2)-c2c(c(Cl)cc4[nH]ncc24)CCOC(=O)O[C@H]2C[C@]4(CCCN3C4)C2)CC1 [Example 334, (1S,3R)-10-chloro-24-((1-((dimethylamino)methyl)cyclopropyl)methoxy)-32-fluoro-4,6-dioxa-13,14,19,23,25,27-hexaazaheptacyclo[25.3.1.1~1,3~.1~18,22~.0~9,17~.0~12,16~.0~21,26~]tritriaconta-9,11,14,16,18(32),19,21,23,25-nonaen-5-one]"
20,2,76,443,2,,"Cc1cc2[nH]ncc2c2c1CCCOC(=O)O[C@@H]1CCCN(C1)c1nc(OC[C@@]34CCCN3C[C@H](F)C4)nc3c(F)c-2ncc13 [Example 38, (17R)-30-Fluoro-24-(((2R,7aS)-2-fluorotetrahydro-1H-pyrrolo[1,2-a]pyrrol-7a(5H)-yl)methoxy)-9-methyl-14,16-dioxa-5,6,21,23,25,29-hexaazahexacyclo[24.3.1.1˜17,21˜.0˜2,10˜.0˜3,7˜.0˜22,27˜]hentriaconta-1(30),2,4,7,9,22,24,26,28-nonaen-15-one bis(2,2,2-trifluoroacetate)]"
14.7,4,58,196,2,,"CN1CCC[C@H]1COc1nc2c3cnc(c(F)c3n1)-c1c(c(Cl)cc3[nH]ncc13)CCCOC(=O)O[C@@H]1COCCN2C1 [Example 207, (26S)-18-chloro-32-fluoro-4-(((2S)-1-methyl-2-pyrrolidinyl)methoxy)-23,25,28-trioxa-1,3,5,9,14,15-hexaazahexacyclo[24.4.1.1~6,10~.0~2,7~.0~11,19~.0~12,16~]dotriaconta-2,4,6,8,10(32),11,13,16,18-nonaen-24-one]"
4,3,10,70,2,,"O=C1CCCCc2c(Cl)cc3[nH]ncc3c2-c2ncc3c(nc(OC[C@@]45CCCN4C[C@H](F)C5)nc3c2F)N2CC[C@H]3CCN1[C@H]3C2 [Example 62, (28S,32R)-18-chloro-33-fluoro-4-(((2R,7aS)-2-fluorotetrahydro-1H-pyrrolo[1,2-a]pyrrol-7a(5H)-yl)methoxy)-1,3,5,9,14,15,25-heptaazaheptacyclo[23.5.2.1~6,10~.0~2,7~.0~11,19~.0~12,16~.0~28,32~]tritriaconta-2,4,6,8,10(33),11,13,16,18-nonaen-24-one]"
4,2,10,60,1,,"O=C1OCCCc2c(Cl)cc3[nH]ncc3c2-c2ncc3c(nc(OC[C@@]45CCCN4C[C@H](F)C5)nc3c2F)N2CCCC[C@H](C2)O1 [Example 100, (26R)-18-chloro-32-fluoro-4-(((2R,7aS)-2-fluorotetrahydro-1H-pyrrolo[1,2-a]pyrrol-7a(5H)-yl)methoxy)-23,25-dioxa-1,3,5,9,14,15-hexaazahexacyclo[24.4.1.1~6,10~.0~2,7~.0~11,19~.0~12,16~]dotriaconta-2,4,6,8,10(32),11,13,16,18-nonaen-24-one]"
7.1,4,75,209,1,,O=C1OCCc2c(Cl)cc3[nH]ncc3c2-c2ncc3c(nc(OC[C@@]45CCCN4C[C@H](F)C5)nc3c2F)N2CCC[C@@H](CO1)C2 [Example 221]
60,8,579,,6,,"C[C@@]12CCCN(C1)c1nc(OC[C@@]34CCCN3C[C@H](F)C4)nc3c(F)c(ncc13)-c1cc(O)cc3cccc(c13)CCCCC(=O)N2 [Example 8, (15R)-32-Fluoro-8-(((2R,7aS)-2-fluorotetrahydro-1H-pyrrolo[1,2-a]pyrrol-7a(5H)-yl)methoxy)-28-hydroxy-15-methyl-3,7,9,11,16-pentaazahexacyclo[20.7.1.1˜2,6˜.1˜11,15˜.0˜5,10˜.0˜26,30˜]dotriaconta-1(29),2(32),3,5,7,9,22,24,26(30),27-decaen-17-one (2,2,2-trifluoroacetate) salt]"
10,,22.6,90,,,"Cc1cc2[nH]ncc2c2c1CCCOC(=O)O[C@@H]1COCCN(C1)c1nc(OC[C@@]34CCCN3C[C@H](F)C4)nc3c(F)c-2c(F)cc13 [Example 102, (26S)-9,32-difluoro-4-(((2R,7aS)-2-fluorotetrahydro-1H-pyrrolo[1,2-a]pyrrol-7a(5H)-yl)methoxy)-18-methyl-23,25,28-trioxa-1,3,5,14,15-pentaazahexacyclo[24.4.1.1~6,10~.0~2,7~.0~11,19~.0~12,16~]dotriaconta-2,4,6,8,10(32),11,13,16,18-nonaen-24-one]"
20.7,3,,262,2,38,"O=C1OCCCc2c(F)cc3[nH]ncc3c2-c2ncc3c(nc(OC[C@@]45CCCN4C[C@H](F)C5)nc3c2F)N2CCOC[C@H](C2)O1 [Example 208, (26S)-18,32-difluoro-4-(((2R,7aS)-2-fluorotetrahydro-1H-pyrrolo[1,2-a]pyrrol-7a(5H)-yl)methoxy)-23,25,28-trioxa-1,3,5,9,14,15-hexaazahexacyclo[24.4.1.1~6,10~.0~2,7~.0~11,19~.0~12,16~]dotriaconta-2,4,6,8,10(32),11,13,16,18-nonaen-24-one]"
